Data set [1] deals with dipeptidyl-peptidase 4 (DPP4) (Homo sapiens, UniProt P27487). To be noted: cited from earlier work.
Data set [2] can be described thus: Clinical Case Example #2: regulating blood glucose levels, body weight, tolerability. In kind it is in vivo, human. To be noted: within just a few days of using, person with type-2 diabetes on metformin. The method, then:
Clinical Case Example #2: The therapeutic composition (i.e. fenugreek formulation) used in Clinical Case Example #1 above was also tested for efficacy on regulating blood glucose levels. The subject was a person, height of 5 feet 6 inches and with baseline a body weight of about 175 lbs. Despite long-term management of their type-2 diabetes with metformin, they still had blood glucose readings almost continuously in the low to high 200s mg/dL (e.g. 204, 228, 277) with hemoglobin A1C of 7.2%. A typical fasting blood sugar for them was 189.
Due to consistently high blood glucose levels, their endocrinologist prescribed Januvia (sitagliptin, a dipeptidyl peptidase-4 (DPP-4) inhibitor). […]
When sufficiently recovered from the pancreatitis, they started using the fenugreek formulation of this invention (combination of fenugreek, curcumin, and chromium picolinate) while they continued taking metformin. Within a few days of starting the fenugreek formulation, their blood glucose readings declined from well over 200 for most of the day, to around 180, with excursions into the mid-200s only after high-sugar meals (whereas prior to this regimen, their blood glucose was in the 200s at a steady state). Occasionally, while on the fenugreek formulation regimen, they had blood glucose readings down to 110. This was the first time in half a decade that the subject had readings as low as 110. […]

The conditions of data set [3]: cited from earlier work.

Like-named read-outs stand apart in the source and are kept apart here.

dipeptidyl-peptidase 4 (DPP4), sequence (P27487 whole entry, species assumed): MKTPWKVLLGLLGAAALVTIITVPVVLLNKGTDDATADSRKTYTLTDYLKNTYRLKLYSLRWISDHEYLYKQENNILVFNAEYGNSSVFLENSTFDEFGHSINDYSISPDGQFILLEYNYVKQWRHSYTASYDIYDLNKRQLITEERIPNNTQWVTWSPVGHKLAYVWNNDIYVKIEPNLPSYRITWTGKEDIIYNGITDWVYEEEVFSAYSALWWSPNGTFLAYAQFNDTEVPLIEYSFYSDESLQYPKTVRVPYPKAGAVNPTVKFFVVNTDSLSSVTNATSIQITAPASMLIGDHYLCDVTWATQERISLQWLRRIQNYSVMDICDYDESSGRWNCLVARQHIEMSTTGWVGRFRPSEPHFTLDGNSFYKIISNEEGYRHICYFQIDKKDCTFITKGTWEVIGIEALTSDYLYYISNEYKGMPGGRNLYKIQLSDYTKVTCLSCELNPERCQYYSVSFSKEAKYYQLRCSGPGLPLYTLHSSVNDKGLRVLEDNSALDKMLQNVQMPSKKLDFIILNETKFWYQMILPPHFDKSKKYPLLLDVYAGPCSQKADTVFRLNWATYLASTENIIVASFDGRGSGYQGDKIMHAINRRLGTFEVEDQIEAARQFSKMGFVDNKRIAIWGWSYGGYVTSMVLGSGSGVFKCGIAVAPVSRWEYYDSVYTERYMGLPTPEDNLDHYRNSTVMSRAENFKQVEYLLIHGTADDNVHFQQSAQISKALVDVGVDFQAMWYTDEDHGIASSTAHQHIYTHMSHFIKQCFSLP

For `COc1cc(/C=C/C(=O)CC(=O)/C=C/c2ccc(O)c(OC)c2)ccc1O` [curcumin], in data set [1], the “action on DPP4” value is listed as “inhibits”.
Regarding `N[C@@H](CC(=O)N1CCn2c(nnc2C(F)(F)F)C1)Cc1cc(F)c(F)cc1F` [Januvia, sitagliptin], the adverse events entry in data set [2] was “diarrhea and signs of acute pancreatitis”.
Take `[Cr]` [chromium]: the safety result in data set [3] (200-1,000 μg daily for up to two years) and in data set [3] (up to 1,000 μg daily for up to six months) was “used safely” each time.

(Values after US20250288634A1, “Fenugreek Formulation for Lowering Blood Glucose and Weight Loss” (priority 2024, published 2025).)
